Tests used:
[1] = test system: MRSA; assay: Mouse MRSA peritonitis model study; assay type: in vivo, ICR mice; conditions: treated i.v. 6 h after MRSA i.p. inoculation; monitored two weeks
[2] = test system: murine or human neutrophils; assay: Transwell chemotaxis assay; assay type: cell-based; conditions: lipid radical scavenger added
Text: Transwell chemotaxis assay. Cytoplasmic membranes of S. aureus Newman, MRSA, or MDRSA were isolated from lysostaphin-induced protoplasts as previously described. Briefly, the bacterial cells were washed and resuspended in buffered hypertonic sucrose, followed by treatment with lysostaphin to digest the cell walls. The resulting protoplasts were recovered and lysed in the dilute buffer to extract cytoplasmic membranes. To evaluate the chemotaxis ability of human or murine neutrophils towards S. aureus membranes, a 96-transwell plate with 3 μm pores was used (Corning, USA). The bottom wells were loaded with 200 μL of the bacterial cell membrane in chemotaxis buffer (49% HBSS, 0.5% human serum albumin, 4 mM L-glutamine, and 49% RPMI 1640), while the top wells contained 2×10^5 neutrophils in 75 μL chemotaxis buffer. The plate was incubated in the dark at 37° C. with 5% CO2 for 1.5 h. Neutrophils that had migrated into the bottom wells were lysed with elastase assay buffer to release the neutrophil elastase. The activity of elastase was measured using the chromogenic substrate, N-methoxysuccinyl-Ala-Ala-Pro-Val-p-nitroanilide, at a final concentration of 1 mM. The absorbance at 405 nm was measured using a GloMax-Multi microplate multimode reader (Promega, WI, USA) to determine the number of migrated neutrophils.

| SMILES | survival [1] | Hb-Naf@RBCM-induced neutrophil recruitment [2] |
| --- | --- | --- |
| CN(C/C=C/c1ccccc1)Cc1cccc2ccccc12 [naftifine] | 12.5% | – |
| Clc1cccc(CN=C2Nc3ccccc3NC23CCNCC3)c1 [Liproxstatin-1] | – | significantly inhibited |
